Assay results taken from patent US12534436B2, “Disubstituted adamantyl derivative or pharmaceutically acceptable salt thereof, and pharmaceutical composition for suppressing cancer growth comprising same as active ingredient” (ONECUREGEN CO., LTD., priority 2020, dated 2026).

Tests used:
various cancer cells = experiment: Cell viability by methylene blue colorimetric assay, various cancer cells; assay type: cell-based; conditions: Homo sapiens; range over the cancer cell lines, methylene blue assay (FIG. 1B); read-out: GI50, proliferation of various cancer cells
Description: Among the newly synthesized adamantyl compounds, it was evaluated how compound 21c (LW1564, Compound 21-3), FIG. 1A) affected proliferation suppression of various cancer cells. Human breast cancer cells (MCF7), human cervical cancer cells (HeLa), human colorectal cancer cells (HCT116, HCT15, LoVo, SW480, SW620 and WiDr), human fibrosarcoma cells (HT1080), human gastric cancer cells (NCI-N87, NUGC3 and SNU484), human liver cancer cells (HepG2, HT17, Huh7, SHJ1 and SK-Hep1), human lung cancer cells (A549 and H1299), human pancreatic cancer cells (AsPC1 and MIA-PaCa2) and normal lung fibroblasts (CCD-34Lu and WI-38) were purchased from the American Type Culture Collection (Manassas, Virginia, USA) or KRIBB Cell Line Bank (Daejeon). For cell culture, cells were cultured in a DMEM medium (Gibco, Grand Island, New York, USA) supplemented with 5% (v/v) fetal bovine serum (WelGENE, Daegu, Korea) and 100 U/ml penicillin and 100 μg/ml streptomycin (Gibco). Cells were maintained at 37° C. in a humidified incubator with 5% CO2, and hypoxia and a multi-gas incubator (Sanyo, Osaka, Japan) was adjusted to 1% O2, 94% N2 and 5% CO2. Cell viability was determined by methylene blue colorimetric assay as described in the “Chou, T. C. […] The dye was eluted with 0.1% HCl (v/v) and quantified at 600 nm on a Molecular Devices EMax (Molecular Devices, CA, USA). […]

HIF-1α = experiment: Western blot of HIF-1α accumulation in HepG2 cells; assay type: cell-based, human
Complex IV = experiment: Mitochondrial respiration assay, complex IV (ascorbate/TMPD); assay type: cell-based, human; conditions: HepG2 cells (FIG. 4D)
Description: (§1) Compounds that suppress mitochondrial respiration promote degradation of HIF-1α by increasing cellular oxygen content. Accordingly, it was investigated whether LW1564 (compound 21-3) affected mitochondrial respiration by measuring the oxygen consumption rate (OCR). Oxygen consumption was measured using an Oxytherm Clark-type electrode system (Hansatech, Norfolk, UK) (Chou, T. C. Theoretical basis, experimental design, and computerized simulation of synergism and antagonism in drug combination studies. Pharmacol. Rev. 58, 621-681 (2006)). HepG2 cells (2×10^7) were cultured with 2 μM LW1564 (compound 21-3) for 6 hours, collected, and then OCR was measured at 37° C. for 5 minutes with a thermoregulated controlled circulating system. For […] studies, digitonin-permeabilised HepG2 cells (2×10^7) were read on a detection device containing 2 ml of respiratory buffer (0.25 M sucrose, 2 mM KH2PO4, 5 mM MgCl2, 1 mM EDTA, 1 mM ADP, 20 mM MOPS, pH 7.4). The following substrates, which provide electrons to the components in the ETC, were then added: 5 mM sodium pyruvate, 5 mM sodium malate, 5 mM sodium succinate, 5 mM L-ascorbic acid and 0.2 mM N,N,N,N-tetra methyl-p-phenylenediamine (TMPD). Complex I, III and IV inhibitors (rotenone, antimycin A and KCN, respectively) were added to a final concentration of 1 μM. […]

[1] = test system: HIF-1 (HRE-dependent luciferase reporter); experiment: HRE-luciferase assay, screening of HIF-1 inhibitors in HCT116 cells; assay type: cell-based, human; conditions: Homo sapiens, HCT-116; HCT116 cells stably expressing HRE-dependent luciferase reporter, hypoxic conditions, 12 hours; means of three experiments
Description: HCT116 cells stably expressing the HRE-dependent luciferase reporter were treated with the disubstituted adamantyl derivative prepared in the above example under hypoxic conditions for 12 hours before measuring luciferase activity.
In HCT116 cells treated with disubstituted adamantyl derivatives, luciferase activity was investigated using HRE-luciferase assay. The HRE-luciferase reporter assay was performed as previously described using the luciferase assay system (Promega, Madison, WI, USA) according to the manufacturer's instructions (Naik, R. et al. Synthesis and Structure-Activity Relationship of (E)Phenoxyacrylic Amide Derivatives as Hypoxia-Inducible Factor (HIF) 1α Inhibitors. J. Med. Chem. 55, 10564-1057 (2012)). Luciferase activity was measured using a Victor X light luminescence reader (PerkinElmer, Boston, MA, USA).

Complex II/III = experiment: Mitochondrial respiration assay, complex II/III (succinate); assay type: cell-based, human; conditions: HepG2 cells (FIG. 4C)
Description: as §1

HepG2 and A549 cells = experiment: Cell proliferation by live cell imaging system IncuCyte ZOOM; assay type: cell-based, human; conditions: IncuCyte ZOOM (FIG. 1C)

COc1cc2c(cc1OC)CN(C(=O)C13CC4CC(C1)CC(c1ccc(OCC(=O)N5CCN(Cc6ccc(C(F)(F)F)cc6)CC5)cc1)(C4)C3)CC2 [Compound 21c, 2-(4-(3-(6,7-Dimethoxy-1,2,3,4-tetrahydroisoquinoline-2-carbonyl)adamantan-1-yl)phenoxy)-1-(4-(4-(trifluoromethyl)benzyl)piperazin-1-yl) ethanone]
GI50 (various cancer cells): 400 to 4600 nM | HIF-1α protein amount in the presence of cobalt chloride (HIF-1α; Western blot, cobalt chloride (FIG. 2B)): did not affect HIF-la protein amount | accumulation of HIF-1α (HIF-1α; hypoxic conditions (FIG. 2B)): suppressed the accumulation of HIF-1α in a concentration-dependent manner | oxygen consumption rate in the presence of ascorbate/TMPD (Complex IV): did not affect the oxygen consumption rate | IC50 [1]: 1100 nM | oxygen consumption rate in the presence of succinate (Complex II/III): did not affect the oxygen consumption rate | proliferation inhibition, live cell imaging (HepG2 and A549 cells): induced proliferation inhibition of HepG2 and A549 cells in a dose-dependent manner
